How the values were obtained:
Assay in all cases: Test C preemergence
Type in all cases: in vivo
[1] = test system: Galium (catchweed bedstraw, Galium aparine); details: for Plant response rating, Galium: scale 0 to 100, 0 no effect, 100 complete control
Method in brief: (§1)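 Visual rating, 0–100 scale (0 = no effect, 100 = complete control) versus controls, 13–15 d after treatment. Compounds in non-phytotoxic solvent plus surfactant; applied preemergence to seeds in loam/sand soil or postemergence to 1- to 4-leaf plants (2–18 cm) in peat/vermiculite medium; greenhouse-held.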

[2] = test system: barnyardgrass (Echinochloa crus-galli); details: for Plant response rating, Barnyardgrass: scale 0 to 100, 0 no effect, 100 complete control
Method in brief: as §1

[3] = test system: corn (Zea mays); details: for Plant response rating, Corn: scale 0 to 100, 0 no effect, 100 complete control
Method in brief: as §1

[4] = test system: crabgrass, large (large crabgrass, Digitaria sanguinalis); details: for Plant response rating, Crabgrass, Large: scale 0 to 100, 0 no effect, 100 complete control
Method in brief: as §1

[5] = test system: foxtail, giant (giant foxtail, Setaria faberii); details: for Plant response rating, Foxtail, Giant: scale 0 to 100, 0 no effect, 100 complete control
Method in brief: as §1

[6] = test system: johnsongrass (Sorghum halepense); details: for Plant response rating, Johnsongrass: scale 0 to 100, 0 no effect, 100 complete control
Method in brief: as §1

[7] = test system: lambsquarters (Chenopodium album); details: for Plant response rating, Lambsquarters: scale 0 to 100, 0 no effect, 100 complete control
Method in brief: as §1

[8] = test system: morningglory (Ipomoea coccinea); details: for Plant response rating, Morningglory: scale 0 to 100, 0 no effect, 100 complete control
Method in brief: as §1

[9] = test system: nutsedge, yellow (yellow nutsedge, Cyperus esculentus); details: for Plant response rating, Nutsedge, Yellow: scale 0 to 100, 0 no effect, 100 complete control
Method in brief: as §1

[10] = test system: oilseed rape (Brassica napus); details: for Plant response rating, Oilseed Rape: scale 0 to 100, 0 no effect, 100 complete control
Method in brief: as §1

[11] = test system: pigweed (Amaranthus retroflexus); details: for Plant response rating, Pigweed: scale 0 to 100, 0 no effect, 100 complete control
Method in brief: as §1

[12] = test system: ragweed (common ragweed, Ambrosia elatior); details: for Plant response rating, Ragweed: scale 0 to 100, 0 no effect, 100 complete control
Method in brief: as §1

[13] = test system: ryegrass, Italian (Italian ryegrass, Lolium multiflorum); details: for Plant response rating, Ryegrass, Italian: scale 0 to 100, 0 no effect, 100 complete control
Method in brief: as §1

[14] = test system: soybean (Glycine max); details: for Plant response rating, Soybean: scale 0 to 100, 0 no effect, 100 complete control
Method in brief: as §1

[15] = test system: velvetleaf (Abutilon theophrasti); details: for Plant response rating, Velvetleaf: scale 0 to 100, 0 no effect, 100 complete control
Method in brief: as §1

[16] = test system: waterhemp (common waterhemp, Amaranthus rudis); details: for Plant response rating, Waterhemp: scale 0 to 100, 0 no effect, 100 complete control
Method in brief: as §1

[17] = test system: wheat (winter wheat, Triticum aestivum); details: for Plant response rating, Wheat: scale 0 to 100, 0 no effect, 100 complete control
Method in brief: as §1

[18] = 31 g ai/ha, 0 is no effect, 100 is complete control

Structure (SMILES): CN1CC(c2cccc(OC(F)F)c2)C(C(=O)Nc2ccccc2F)C1=O (centres unmarked) [Compound 618]
- Plant response rating (scale of 0 to 100), Galium [1, 18]: 0
- Plant response rating, Galium ([1]; 62 g ai/ha): 0
- Plant response rating, Galium ([1]; 125 g ai/ha): 85
- Plant response rating, Galium ([1]; 250 g ai/ha): 90
- Plant response rating (scale of 0 to 100), Barnyardgrass [2, 18]: 95
- Plant response rating, Barnyardgrass ([2]; 62 g ai/ha): 95
- Plant response rating, Barnyardgrass ([2]; 125 g ai/ha): 95
- Plant response rating, Barnyardgrass ([2]; 250 g ai/ha): 98
- Plant response rating (scale of 0 to 100), Corn [3, 18]: 30
- Plant response rating, Corn ([3]; 62 g ai/ha): 50
- Plant response rating, Corn ([3]; 125 g ai/ha): 75
- Plant response rating, Corn ([3]; 250 g ai/ha): 85
- Plant response rating (scale of 0 to 100), Crabgrass, Large [4, 18]: 100
- Plant response rating, Crabgrass, Large ([4]; 62 g ai/ha): 100
- Plant response rating, Crabgrass, Large ([4]; 125 g ai/ha): 100
- Plant response rating, Crabgrass, Large ([4]; 250 g ai/ha): 100
- Plant response rating (scale of 0 to 100), Foxtail, Giant [5, 18]: 90
- Plant response rating, Foxtail, Giant ([5]; 62 g ai/ha): 90
- Plant response rating, Foxtail, Giant ([5]; 125 g ai/ha): 90
- Plant response rating, Foxtail, Giant ([5]; 250 g ai/ha): 95
- Plant response rating (scale of 0 to 100), Johnsongrass [6, 18]: 20
- Plant response rating, Johnsongrass ([6]; 62 g ai/ha): 60
- Plant response rating, Johnsongrass ([6]; 125 g ai/ha): 85
- Plant response rating, Johnsongrass ([6]; 250 g ai/ha): 85
- Plant response rating (scale of 0 to 100), Lambsquarters [7, 18]: 50
- Plant response rating, Lambsquarters ([7]; 62 g ai/ha): 50
- Plant response rating, Lambsquarters ([7]; 125 g ai/ha): 70
- Plant response rating, Lambsquarters ([7]; 250 g ai/ha): 75
- Plant response rating (scale of 0 to 100), Morningglory [8, 18]: 0
- Plant response rating, Morningglory ([8]; 62 g ai/ha): 0
- Plant response rating, Morningglory ([8]; 125 g ai/ha): 10
- Plant response rating, Morningglory ([8]; 250 g ai/ha): 5
- Plant response rating (scale of 0 to 100), Nutsedge, Yellow [9, 18]: 0
- Plant response rating, Nutsedge, Yellow ([9]; 62 g ai/ha): 0
- Plant response rating, Nutsedge, Yellow ([9]; 125 g ai/ha): 0
- Plant response rating, Nutsedge, Yellow ([9]; 250 g ai/ha): 10
- Plant response rating (scale of 0 to 100), Oilseed Rape [10, 18]: 60
- Plant response rating, Oilseed Rape ([10]; 62 g ai/ha): 85
- Plant response rating, Oilseed Rape ([10]; 125 g ai/ha): 90
- Plant response rating, Oilseed Rape ([10]; 250 g ai/ha): 90
- Plant response rating (scale of 0 to 100), Pigweed [11, 18]: 40
- Plant response rating, Pigweed ([11]; 62 g ai/ha): 60
- Plant response rating, Pigweed ([11]; 125 g ai/ha): 60
- Plant response rating, Pigweed ([11]; 250 g ai/ha): 75
- Plant response rating (scale of 0 to 100), Ragweed [12, 18]: 40
- Plant response rating, Ragweed ([12]; 62 g ai/ha): 40
- Plant response rating, Ragweed ([12]; 125 g ai/ha): 65
- Plant response rating, Ragweed ([12]; 250 g ai/ha): 80
- Plant response rating (scale of 0 to 100), Ryegrass, Italian [13, 18]: 45
- Plant response rating, Ryegrass, Italian ([13]; 62 g ai/ha): 50
- Plant response rating, Ryegrass, Italian ([13]; 125 g ai/ha): 45
- Plant response rating, Ryegrass, Italian ([13]; 250 g ai/ha): 55
- Plant response rating (scale of 0 to 100), Soybean [14, 18]: 0
- Plant response rating, Soybean ([14]; 62 g ai/ha): 10
- Plant response rating, Soybean ([14]; 125 g ai/ha): 0
- Plant response rating, Soybean ([14]; 250 g ai/ha): 0
- Plant response rating (scale of 0 to 100), Velvetleaf [15, 18]: 0
- Plant response rating, Velvetleaf ([15]; 62 g ai/ha): 5
- Plant response rating, Velvetleaf ([15]; 125 g ai/ha): 55
- Plant response rating, Velvetleaf ([15]; 250 g ai/ha): 60
- Plant response rating (scale of 0 to 100), Waterhemp [16, 18]: 60
- Plant response rating, Waterhemp ([16]; 62 g ai/ha): 60
- Plant response rating, Waterhemp ([16]; 125 g ai/ha): 65
- Plant response rating, Waterhemp ([16]; 250 g ai/ha): 85
- Plant response rating (scale of 0 to 100), Wheat [17, 18]: 20
- Plant response rating, Wheat ([17]; 62 g ai/ha): 30
- Plant response rating, Wheat ([17]; 125 g ai/ha): 75
- Plant response rating, Wheat ([17]; 250 g ai/ha): 80

Structure (SMILES): CN1CC(c2ccc(C(F)(F)F)cc2)C(C(=S)Nc2ccccc2F)C1=O (centres unmarked) [Compound 450]
- Plant response rating, Galium ([1]; 31 g ai/ha): 50
- Plant response rating, Galium ([1]; 62 g ai/ha): 90
- Plant response rating, Galium ([1]; 125 g ai/ha): 90
- Plant response rating, Galium ([1]; 250 g ai/ha): 95
- Plant response rating, Barnyardgrass ([2]; 31 g ai/ha): 90
- Plant response rating, Barnyardgrass ([2]; 62 g ai/ha): 90
- Plant response rating, Barnyardgrass ([2]; 125 g ai/ha): 90
- Plant response rating, Barnyardgrass ([2]; 250 g ai/ha): 95
- Plant response rating, Corn ([3]; 31 g ai/ha): 5
- Plant response rating, Corn ([3]; 62 g ai/ha): 5
- Plant response rating, Corn ([3]; 125 g ai/ha): 20
- Plant response rating, Corn ([3]; 250 g ai/ha): 65
- Plant response rating, Crabgrass, Large ([4]; 31 g ai/ha): 90
- Plant response rating, Crabgrass, Large ([4]; 62 g ai/ha): 90
- Plant response rating, Crabgrass, Large ([4]; 125 g ai/ha): 90
- Plant response rating, Crabgrass, Large ([4]; 250 g ai/ha): 95
- Plant response rating, Foxtail, Giant ([5]; 31 g ai/ha): 90
- Plant response rating, Foxtail, Giant ([5]; 62 g ai/ha): 90
- Plant response rating, Foxtail, Giant ([5]; 125 g ai/ha): 90
- Plant response rating, Foxtail, Giant ([5]; 250 g ai/ha): 95
- Plant response rating, Johnsongrass ([6]; 31 g ai/ha): 0
- Plant response rating, Johnsongrass ([6]; 62 g ai/ha): 0
- Plant response rating, Johnsongrass ([6]; 125 g ai/ha): 20
- Plant response rating, Johnsongrass ([6]; 250 g ai/ha): 50
- Plant response rating, Lambsquarters ([7]; 31 g ai/ha): 55
- Plant response rating, Lambsquarters ([7]; 62 g ai/ha): 50
- Plant response rating, Lambsquarters ([7]; 125 g ai/ha): 65
- Plant response rating, Lambsquarters ([7]; 250 g ai/ha): 65
- Plant response rating, Morningglory ([8]; 31 g ai/ha): 0
- Plant response rating, Morningglory ([8]; 62 g ai/ha): 0
- Plant response rating, Morningglory ([8]; 125 g ai/ha): 20
- Plant response rating, Morningglory ([8]; 250 g ai/ha): 10
- Plant response rating, Nutsedge, Yellow ([9]; 31 g ai/ha): 0
- Plant response rating, Nutsedge, Yellow ([9]; 62 g ai/ha): 0
- Plant response rating, Nutsedge, Yellow ([9]; 125 g ai/ha): 0
- Plant response rating, Nutsedge, Yellow ([9]; 250 g ai/ha): 0
- Plant response rating, Oilseed Rape ([10]; 31 g ai/ha): 30
- Plant response rating, Oilseed Rape ([10]; 62 g ai/ha): 30
- Plant response rating, Oilseed Rape ([10]; 125 g ai/ha): 20
- Plant response rating, Oilseed Rape ([10]; 250 g ai/ha): 60
- Plant response rating, Pigweed ([11]; 31 g ai/ha): 55
- Plant response rating, Pigweed ([11]; 62 g ai/ha): 60
- Plant response rating, Pigweed ([11]; 125 g ai/ha): 80
- Plant response rating, Pigweed ([11]; 250 g ai/ha): 80
- Plant response rating, Ragweed ([12]; 31 g ai/ha): 5
- Plant response rating, Ragweed ([12]; 62 g ai/ha): 10
- Plant response rating, Ragweed ([12]; 125 g ai/ha): 20
- Plant response rating, Ragweed ([12]; 250 g ai/ha): 60
- Plant response rating, Ryegrass, Italian ([13]; 62 g ai/ha): 0
- Plant response rating, Ryegrass, Italian ([13]; 125 g ai/ha): 0
- Plant response rating, Ryegrass, Italian ([13]; 250 g ai/ha): 30
- Plant response rating, Soybean ([14]; 62 g ai/ha): 5
- Plant response rating, Soybean ([14]; 125 g ai/ha): 0
- Plant response rating, Soybean ([14]; 250 g ai/ha): 0
- Plant response rating, Velvetleaf ([15]; 62 g ai/ha): 0
- Plant response rating, Velvetleaf ([15]; 125 g ai/ha): 10
- Plant response rating, Velvetleaf ([15]; 250 g ai/ha): 50
- Plant response rating, Waterhemp ([16]; 62 g ai/ha): 60
- Plant response rating, Waterhemp ([16]; 125 g ai/ha): 75
- Plant response rating, Waterhemp ([16]; 250 g ai/ha): 85
- Plant response rating, Wheat ([17]; 62 g ai/ha): 30
- Plant response rating, Wheat ([17]; 125 g ai/ha): 40
- Plant response rating, Wheat ([17]; 250 g ai/ha): 60
